The values below come from ChEMBL document CHEMBL1125386, “Small atrial natriuretic peptide analogues: design, synthesis, and structural requirements for guanylate cyclase activation” (J Med Chem, 1992).

SMILES strings stand for the structures.

System in one test: not listed separately
The test is described as follows: Binding affinity towards low-affinity site of Atrial natriuretic peptide receptor 1 of rabbit adrenal membrane. It is filed as tissue-based.
Take `CC[C@H](C)[C@@H]1NC(=O)[C@H](CCCN=C(N)N)NC(=O)[C@@H](CC(=O)O)NC(=O)[C@H]([C@@H](C)CC)NC(=O)[C@@H](CCCN=C(N)N)NC(=O)CNC(=O)CNC(=O)[C@@H](Cc2ccccc2)NC(=O)CNC(=O)[C@@H](NC(=O)[C@H](CO)NC(=O)[C@@H](N)CO)CSSC[C@@H](C(=O)N[C@H](Cc2ccccc2)C(=O)N[C@@H](CCCCN=C(N)N)C(=O)O)NC1=O`: the KL was 320 nM. The same measure, in the same setting: to `CC[C@H](C)[C@@H]1NC(=O)[C@@H](CCCN=C(N)N)NC(=O)CNC(=O)CNC(=O)[C@@H](Cc2ccccc2)NC(=O)[C@@H](C)NC(=O)[C@H](NC(=O)[C@H](CO)NC(=O)[C@@H](N)CO)CSSC[C@H](C(=O)N[C@H](Cc2ccccc2)C(=O)N[C@H](CCCN=C(N)N)C(=O)O)NC(=O)[C@@H]([C@@H](C)CC)NC(=O)[C@H](CCCN=C(N)N)NC(=O)CNC1=O` belongs 740 nM; to `CC[C@H](C)[C@@H]1NC(=O)[C@@H](CCCN=C(N)N)NC(=O)CNC(=O)CNC(=O)[C@@H](Cc2ccccc2)N(C)C(=O)C(C)NC(=O)[C@H](NC(=O)[C@H](CO)NC(=O)[C@@H](N)CO)CSSC[C@H](C(=O)N[C@H](Cc2ccccc2)C(=O)N[C@H](CCCN=C(N)N)C(=O)O)NC(=O)[C@@H]([C@@H](C)CC)NC(=O)[C@H](CCCN=C(N)N)NC(=O)[C@@H](CC(=O)O)NC1=O` (stereo in doubt), 290 nM. Same read-out and setting: to `CC[C@H](C)[C@@H]1NC(=O)[C@@H](CCCN=C(N)N)NC(=O)CNC(=O)CNC(=O)[C@@H](Cc2ccccc2)NC(=O)CNC(=O)[C@H](NC(=O)[C@H](CO)NC(=O)[C@@H](N)CO)CSSC[C@H](C(=O)N[C@H](Cc2ccccc2)C(=O)NCC(=O)O)NC(=O)[C@@H]([C@@H](C)CC)NC(=O)[C@H](CCCN=C(N)N)NC(=O)[C@@H](CC(=O)O)NC1=O` belongs 3100 nM; to `CC[C@H](C)[C@@H]1NC(=O)[C@@H](CCCN=C(N)N)NC(=O)CNC(=O)CNC(=O)[C@@H](C2CCCCC2)NC(=O)CCSSC[C@H](C(N)=O)NC(=O)[C@@H](CCCN=C(N)N)NC(=O)[C@H](Cc2ccccc2)NC(=O)[C@@H]([C@@H](C)CC)NC(=O)[C@H](CCCN=C(N)N)NC(=O)[C@@H](CC(=O)O)NC1=O`, 300 nM; to `CC[C@H](C)[C@@H]1NC(=O)[C@@H](CCCN=C(N)N)NC(=O)CNC(=O)CNC(=O)[C@@H](Cc2ccc(O)cc2)NC(=O)C(C)NC(=O)[C@H](NC(=O)[C@H](CO)NC(=O)[C@@H](N)CO)CSSC[C@H](C(=O)N[C@H](Cc2ccccc2)C(=O)N[C@H](CCCN=C(N)N)C(=O)O)NC(=O)[C@@H]([C@@H](C)CC)NC(=O)[C@H](CCCN=C(N)N)NC(=O)[C@@H](CC(=O)O)NC1=O` (stereo in doubt), 10000 nM.

Compound `CC[C@H](C)[C@@H]1NC(=O)[C@@H](CCCN=C(N)N)NC(=O)CNC(=O)CNC(=O)[C@@H](C2CCCCC2)NC(=O)[C@H](NC(=O)[C@H](N)CCCN=C(N)N)CSSC[C@H](C(N)=O)NC(=O)[C@@H](CCCN=C(N)N)NC(=O)[C@@H]2Cc3ccccc3CN2C(=O)[C@@H]([C@@H](C)CC)NC(=O)[C@H](CCCN=C(N)N)NC(=O)[C@@H](CC(=O)O)NC1=O` had a KL of 270 nM. The same measure, in the same setting: for `CC[C@H](C)[C@@H]1NC(=O)[C@@H](CCCN=C(N)N)NC(=O)CNC(=O)CNC(=O)[C@@H](C2CCCCC2)NC(=O)[C@H](NC(=O)[C@H](N)Cc2c[nH]cn2)CSSC[C@H](C(N)=O)NC(=O)[C@@H](CCCN=C(N)N)NC(=O)[C@H](Cc2ccccc2)NC(=O)[C@@H]([C@@H](C)CC)NC(=O)[C@H](CCCN=C(N)N)NC(=O)[C@@H](CC(=O)O)NC1=O` the value was 190 nM.

Take `CC[C@H](C)[C@@H]1NC(=O)[C@@H](CCCN=C(N)N)NC(=O)CNC(=O)CNC(=O)[C@@H](Cc2ccccc2)NC(=O)CNC(=O)[C@H](NC(=O)[C@H](CO)NC(=O)[C@@H](N)CO)CSSC[C@H](C(=O)N[C@H](Cc2ccccc2)C(=O)N[C@H](CCCN=C(N)N)C(=O)O)NC(=O)[C@@H]([C@@H](C)CC)NC(=O)[C@H](CCCN=C(N)N)NC(=O)[C@@H](CC(=O)OC)NC1=O`: the KL came out at 1400 nM.

`CC[C@H](C)[C@@H]1NC(=O)[C@@H](CCCN=C(N)N)NC(=O)CNC(=O)CNC(=O)[C@@H](Cc2ccccc2)NC(=O)[C@@H](C)NC(=O)[C@H](NC(=O)[C@H](CO)NC(=O)[C@@H](N)CO)CSSC[C@H](C(=O)N[C@H](Cc2ccccc2)C(=O)N[C@H](CCCN=C(N)N)C(=O)O)NC(=O)[C@@H]([C@@H](C)CC)NC(=O)[C@H](CCCN=C(N)N)NC(=O)[C@@H](C)NC1=O` gave a KL of 1000 nM. `CC[C@H](C)[C@@H]1NC(=O)[C@@H](CCCN=C(N)N)NC(=O)Cc2ccc(cc2)NC(=O)Cc2ccc(cc2)NC(=O)[C@@H](Cc2ccccc2)NC(=O)C(C)NC(=O)[C@H](NC(=O)[C@H](CO)NC(=O)[C@@H](N)CO)CSSC[C@H](C(=O)N[C@H](Cc2ccccc2)C(=O)N[C@H](CCCN=C(N)N)C(=O)O)NC(=O)[C@@H]([C@@H](C)CC)NC(=O)[C@H](CCCN=C(N)N)NC(=O)[C@@H](CC(=O)O)NC1=O` (stereo in doubt) came in with a KL of 1400 nM. Same read-out and setting: to `CC[C@H](C)[C@@H]1NC(=O)[C@@H](CCCN=C(N)N)NC(=O)CNC(=O)CNC(=O)[C@@H](Cc2ccccc2)NC(=O)[C@@H](C)NC(=O)[C@H](NC(=O)[C@H](CO)NC(=O)[C@@H](N)CO)CSSC[C@H](C(=O)N[C@H](Cc2ccccc2)C(=O)N[C@H](CCCN=C(N)N)C(=O)O)NC(=O)[C@@H]([C@@H](C)CC)NC(=O)[C@H](CC(=O)O)NC(=O)[C@@H](CCCN=C(N)N)NC1=O` belongs 7800 nM. Consider `CC[C@H](C)[C@@H]1NC(=O)[C@@H](CCCN=C(N)N)NC(=O)Cc2cccc(c2)NC(=O)Cc2cccc(c2)NC(=O)[C@@H](Cc2ccccc2)NC(=O)C(C)NC(=O)[C@H](NC(=O)[C@H](CO)NC(=O)[C@@H](N)CO)CSSC[C@H](C(=O)N[C@H](Cc2ccccc2)C(=O)N[C@H](CCCN=C(N)N)C(=O)O)NC(=O)[C@@H]([C@@H](C)CC)NC(=O)[C@H](CCCN=C(N)N)NC(=O)[C@@H](CC(=O)O)NC1=O` (stereo in doubt), for which the KL was 810 nM. Still for that read-out and setting: for `CC[C@H](C)[C@@H]1NC(=O)[C@@H](CCCN=C(N)N)NC(=O)CNC(=O)CNC(=O)[C@@H](Cc2ccccc2)NC(=O)[C@@H](C)NC(=O)[C@H](NC(=O)[C@H](CO)NC(=O)[C@@H](N)CO)CSSC[C@H](C(=O)N[C@H](Cc2ccccc2)C(=O)N[C@H](CCCN=C(N)N)C(=O)O)NC(=O)[C@@H]([C@@H](C)CC)NC(=O)[C@H](CCCN=C(N)N)NC(=O)[C@@H](CO)NC1=O` the value was 510 nM. Same read-out and setting: to `CC[C@H](C)[C@@H]1NC(=O)[C@@H](CCCN=C(N)N)NC(=O)CNC(=O)CNC(=O)[C@@H](Cc2ccccc2)NC(=O)CNC(=O)[C@H](NC(=O)[C@H](CO)NC(=O)[C@@H](N)CO)CSSC[C@H](C(=O)N[C@@H](Cc2ccccc2)C(=O)N[C@H](CCCN=C(N)N)C(=O)O)NC(=O)[C@@H]([C@@H](C)CC)NC(=O)[C@H](CCCN=C(N)N)NC(=O)[C@@H](CC(=O)O)NC1=O` belongs 780 nM.

Another test deals with Atrial natriuretic peptide receptor 1 (Oryctolagus cuniculus). Briefly: Binding affinity towards the low-affinity site atrionatriuretic peptide receptor 1 of rabbit adrenal membrane.
As to `CC[C@H](C)[C@@H]1NC(=O)[C@@H](CCCN=C(N)N)NC(=O)[C@H](CC(=O)O)NC(=O)[C@@H]([C@@H](C)CC)NC(=O)[C@H](CCCN=C(N)N)NC(=O)CNC(=O)CNC(=O)[C@H](Cc2ccccc2)NC(=O)CN(C)C(=O)[C@@H](NC(=O)[C@@H](CO)NC(=O)[C@H](N)CO)CSSC[C@@H](C(=O)N[C@H](Cc2ccccc2)C(=O)N[C@H](CCCN=C(N)N)C(=O)O)NC1=O`, the KL worked out at 410 nM.

Take `CC[C@H](C)[C@@H]1NC(=O)[C@@H](CCCN=C(N)N)NC(=O)CNC(=O)CNC(=O)[C@@H](Cc2ccccc2)NC(=O)C(C)NC(=O)[C@H](NC(=O)CCCCN)CSSC[C@H](C(=O)N[C@H](Cc2ccccc2)C(=O)N[C@H](CCCN=C(N)N)C(=O)O)NC(=O)[C@@H]([C@@H](C)CC)NC(=O)[C@H](CCCN=C(N)N)NC(=O)[C@@H](CC(=O)O)NC1=O` (stereo in doubt): the KL was found to be 280 nM.

`CC[C@H](C)[C@@H]1NC(=O)[C@@H](CCCN=C(N)N)NC(=O)CNC(=O)CNC(=O)[C@@H](C2CCCCC2)NC(=O)[C@H](NC(=O)[C@H](N)CCCN=C(N)N)CSSC[C@H](C(=O)O)NC(=O)[C@@H](CCCN=C(N)N)NC(=O)[C@H](C)NC(=O)[C@@H]([C@@H](C)CC)NC(=O)[C@H](CCCN=C(N)N)NC(=O)[C@@H](CC(=O)O)NC1=O` returned a KL of 280 nM. Same read-out and setting: to `CC[C@H](C)[C@@H]1NC(=O)[C@@H](CCCN=C(N)N)NC(=O)CNC(=O)CNC(=O)[C@@H](Cc2ccccc2)NC(=O)CNC(=O)[C@H](NC(=O)[C@H](CO)NC(=O)[C@@H](N)CO)CSSC[C@H](C(=O)N2CCC[C@@H]2C(=O)N[C@H](CCCN=C(N)N)C(=O)O)NC(=O)[C@@H]([C@@H](C)CC)NC(=O)[C@H](CCCN=C(N)N)NC(=O)[C@@H](CC(=O)O)NC1=O` belongs 440 nM. In turn, `CC[C@H](C)[C@@H]1NC(=O)[C@@H](CCCN=C(N)N)NC(=O)CNC(=O)CNC(=O)[C@@H](C2CCCCC2)NC(=O)CCSSC[C@H](C(N)=O)NC(=O)[C@@H](CCCN=C(N)N)NC(=O)[C@H](Cc2ccccc2)NC(=O)[C@@H]([C@@H](C)CC)NC(=O)[C@H](CCCN=C(N)N)NC(=O)[C@@H](CCC(=O)O)NC1=O` had a KL of 430 nM.

`CC[C@H](C)[C@@H]1NC(=O)[C@@H](CCCN=C(N)N)NC(=O)CNC(=O)CNC(=O)[C@@H](C2CCCCC2)NC(=O)[C@H](NC(=O)[C@H](N)CCCN=C(N)N)CSSC[C@H](C(=O)O)NC(=O)[C@@H](CCCN=C(N)N)NC(=O)[C@H](Cc2ccccc2)NC(=O)[C@@H]([C@@H](C)CC)NC(=O)[C@H](CCCN=C(N)N)NC(=O)[C@@H](CC(=O)O)NC1=O` displayed a KL of 460 nM. For `CC[C@H](C)[C@@H]1NC(=O)[C@@H](CCCN=C(N)N)NC(=O)CNC(=O)CNC(=O)[C@@H](Cc2ccccc2)NC(=O)CNC(=O)[C@H](NC(=O)[C@H](CO)NC(=O)[C@@H](N)CO)CSSC[C@H](C(=O)N[C@H](Cc2ccccc2)C(=O)N[C@H](CCCN=C(N)N)C(=O)O)NC(=O)[C@@H]([C@@H](C)CC)NC(=O)[C@H](CCCN=C(N)N)NC(=O)[C@@H](CC(=O)O)NC1=O`, the KL came out at 410 nM.

As to `CC[C@H](C)[C@@H]1NC(=O)[C@@H](CCCN=C(N)N)NC(=O)CNC(=O)CNC(=O)[C@@H](Cc2ccccc2)NC(=O)[C@H](NC(=O)[C@@H](CO)NC(=O)[C@H](N)CO)CSSC[C@H](C(=O)O)NC(=O)[C@@H](CCCN=C(N)N)NC(=O)[C@H](Cc2ccccc2)NC(=O)[C@@H]([C@@H](C)CC)NC(=O)[C@H](CCCN=C(N)N)NC(=O)[C@@H](CC(=O)O)NC1=O`, the KL was determined as 790 nM.
